Conditions: conscious rabbits, intravenous, dose regimen identical to test compound; positive control
Protocol: Four adult New Zealand White rabbits of both sexes are chosen for these studies. […] The conscious rabbits are implanted with an intravenous catheter in marginal ear vein or by centrally by intracisternal catheter interfaced to a pressure transducer connected to a suitable recorder. To unveil peripheral effects of test compound, two sets of acute studies are conducted in rabbits. In the first set of studies, test compound is dosed to rabbit intravenously for a dose-response study with cumulative doses starting 0 (Ringer's Lock solution as a vehicle), 0.1, 0.3, 1, 3.2 and 10 mg/kg where each dose is tested on a separate day. A single intravenous bolus dose at 3 mg/kg is given and a time-course study is conducted in the second set of studies. Systolic, diastolic, mean and diastolic blood pressures are recorded in both the studies. Data collections are made for 3 hours in the second set of studies. Heart rate (HR) is derived electronically using an algorithm to determine HR from pulse interval. In a separate set of studies, Clonidine (positive control) is tested where all experimental procedures including dose-regimen are identical to that of the studies with test compound.

In the case of `Clc1cccc(Cl)c1N=C1NCCN1` [Clonidine], the “maximum drop of arterial blood pressure” value is reported as −6 mmHg.

— patent US9199985B2, “Compounds and methods for treatment of hypertension” (Medivation Technologies, Inc., priority 2011, dated 2015)
